Values quoted from earlier work, collected in patent US7319013B2, “Serine hydroxymethyltransferase as a target for herbicides” (BASF Aktiengesellschaft, priority 2002, dated 2008).

Experiments:
[1] = molecular target: T1, ovine SHMT (Ovis aries, UniProt P35623); details: micromolar concentrations
T1 sequence (P35623 2-484 limits assumed): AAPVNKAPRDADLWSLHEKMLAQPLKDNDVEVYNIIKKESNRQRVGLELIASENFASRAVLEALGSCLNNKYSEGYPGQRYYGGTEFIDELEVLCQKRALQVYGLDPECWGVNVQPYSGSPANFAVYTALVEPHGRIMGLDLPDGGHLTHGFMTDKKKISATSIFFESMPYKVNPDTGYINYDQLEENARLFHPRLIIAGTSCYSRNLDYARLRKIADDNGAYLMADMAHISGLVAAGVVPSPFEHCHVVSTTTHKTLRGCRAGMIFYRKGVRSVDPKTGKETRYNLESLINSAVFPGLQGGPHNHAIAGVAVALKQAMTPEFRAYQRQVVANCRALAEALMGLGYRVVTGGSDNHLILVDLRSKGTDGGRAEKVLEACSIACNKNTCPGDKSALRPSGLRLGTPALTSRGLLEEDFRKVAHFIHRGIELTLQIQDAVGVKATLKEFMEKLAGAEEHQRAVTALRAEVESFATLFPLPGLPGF

[2] = test system: SHMT from Euglena gracilis; details: millimolar concentrations
[3] = test system: SHMT from CHO cells
[4] = test system: SHMT from CHO cells; details: by means of photo-linkage

SMILES | inhibition of SHMT [2] | further results
NOC[C@@H](N)C(=O)O [O-amino-D-serine] | – | inhibitory effect on SHMT [1]: have an inhibitory effect
N[C@@H](CS)C(=O)O [cystein] | can be inhibited | –
NCC(=O)O [glycin] | can be inhibited | –
NC(Cn1ccc(=O)c(O)c1)C(=O)O (stereo not drawn) [mimosine] | – | inhibition of SHMT [3]: does not inhibit it; binding to SHMT [4]: can be bound
N[C@@H](CO)C(=O)O [serine] | can be inhibited | –
